Values quoted from earlier work, collected in patent publication US20110212192A1, “INGESTIBLES CONTAINING SUGAR AND CINNAMON OR GINSENG” (ALLEGIANCE EQUITY CORPORATION, priority 2008, published 2011).

Key:
Conditions in all cases: immunoblotting; mouse 3T3-L1 adipocytes
insulin receptor (IR) = system: insulin receptor (IR)
tristetraprolin (TTP) = system: tristetraprolin (TTP)
[1] = system: glucose transporter 4 (GLUT4)

level of insulin receptor (IR) protein (insulin receptor (IR)): increased
Substance: insulin
level of tristetraprolin (TTP) protein (tristetraprolin (TTP)): increased | level of glucose transporter 4 (GLUT4) protein [1]: increased
